In US9951049B2, “Pyrazole linked benzimidazole conjugates and a process for preparation thereof” (Council of Scientific & Industrial Reseach, priority 2014, dated 2018):

Legend:
[1] = test system: DU-145; experiment: NCI SRB screen, DU-145; conditions: Homo sapiens, DU-145, 48 h, read-out: GI50 values
[2] = test system: NCIH322M; experiment: NCI SRB screen, NCIH322M; conditions: Homo sapiens, NCI-H322M, 48 h, read-out: GI50 values
[3] = test system: MCF7; experiment: NCI SRB screen, MCF7; conditions: Homo sapiens, MCF7, 48 h, read-out: GI50 values
[4] = test system: K-562; experiment: NCI SRB screen, K-562; conditions: Homo sapiens, K562, 48 h, read-out: GI50 values
[5] = test system: Breast Cancer cell lines; experiment: NCI SRB screen, Breast Cancer panel average; conditions: Homo sapiens, 48 h, read-out: Log10 GI50 (converted)
[6] = test system: 786-0; experiment: NCI SRB screen, 786-0; conditions: Homo sapiens, 786-0, 48 h, read-out: GI50 values
[7] = test system: NCI-H23; experiment: NCI SRB screen, NCI-H23; conditions: Homo sapiens, NCI-H23, 48 h, read-out: GI50 values
[8] = test system: SK-MEL-28; experiment: NCI SRB screen, SK-MEL-28; conditions: Homo sapiens, SK-MEL-28, 48 h, read-out: GI50 values
[9] = test system: SN12C; experiment: NCI SRB screen, SN12C; conditions: Homo sapiens, 48 h, read-out: GI50 values
[10] = test system: HT29; experiment: NCI SRB screen, HT29; conditions: Homo sapiens, HT-29, 48 h, read-out: GI50 values
[11] = test system: CAKI-1; experiment: NCI SRB screen, CAKI-1; conditions: Homo sapiens, CAKI-1, 48 h, read-out: GI50 values
[12] = test system: U251; experiment: NCI SRB screen, U251; conditions: Homo sapiens, U-251, 48 h, read-out: GI50 values
[13] = test system: A498; experiment: NCI SRB screen, A498; conditions: Homo sapiens, A498, 48 h, read-out: GI50 values
[14] = test system: UO-31; experiment: NCI SRB screen, UO-31; conditions: Homo sapiens, UO-31, 48 h, read-out: GI50 values
[15] = test system: HCC-2998; experiment: NCI SRB screen, HCC-2998; conditions: Homo sapiens, HCC 2998, 48 h, read-out: GI50 values
[16] = test system: Non-small-cell lung cancer cell lines; experiment: NCI SRB screen, Non-small-cell lung panel average; conditions: Homo sapiens, 48 h, read-out: Log10 GI50 (converted)
[17] = test system: HCT-15; experiment: NCI SRB screen, HCT-15; conditions: Homo sapiens, HCT-15, 48 h, read-out: GI50 values
[18] = test system: UACC-257; experiment: NCI SRB screen, UACC-257; conditions: Homo sapiens, UACC-257, 48 h, read-out: GI50 values
[19] = test system: SW-620; experiment: NCI SRB screen, SW-620; conditions: Homo sapiens, SW-620, 48 h, read-out: GI50 values
[20] = test system: PC-3; experiment: NCI SRB screen, PC-3; conditions: Homo sapiens, PC-3, 48 h, read-out: GI50 values
[21] = test system: MDA-MB-231/ATCC; experiment: NCI SRB screen, MDA-MB-231/ATCC; conditions: Homo sapiens, MDA-MB-231, 48 h, read-out: GI50 values
[22] = test system: Melanoma cell lines; experiment: NCI SRB screen, Melanoma panel average; conditions: Homo sapiens, 48 h, read-out: Log10 GI50 (converted)
[23] = test system: Colon cancer cell lines; experiment: NCI SRB screen, Colon panel average; conditions: Homo sapiens, 48 h, read-out: Log10 GI50 (converted)
[24] = test system: COLO-205; experiment: NCI SRB screen, COLO-205; conditions: Homo sapiens, COLO 205, 48 h, read-out: GI50 values
[25] = test system: A549/ATCC; experiment: NCI SRB screen, A549/ATCC; conditions: Homo sapiens, A549, 48 h, read-out: GI50 values
[26] = test system: MDA-MB-435; experiment: NCI SRB screen, MDA-MB-435 (Breast panel); conditions: Homo sapiens, MDA-MB-435, 48 h, read-out: GI50 values
[27] = test system: SK-MEL-5; experiment: NCI SRB screen, SK-MEL-5; conditions: Homo sapiens, SK-MEL-5, 48 h, read-out: GI50 values, Melanoma, SK-MEL-5
[28] = test system: OVCAR-4; experiment: NCI SRB screen, OVCAR-4; conditions: Homo sapiens, OVCAR-4, 48 h, read-out: GI50 values
[29] = test system: NCI/ADR-RES; experiment: NCI SRB screen, NCI/ADR-RES; conditions: Homo sapiens, 48 h, read-out: GI50 values
[30] = test system: OVCAR-8; experiment: NCI SRB screen, OVCAR-8; conditions: Homo sapiens, OVCAR-8, 48 h, read-out: GI50 values
[31] = test system: HCT-116; experiment: NCI SRB screen, HCT-116; conditions: Homo sapiens, HCT-116, 48 h, read-out: GI50 values
[32] = test system: TK-10; experiment: NCI SRB screen, TK-10; conditions: Homo sapiens, TK-10, 48 h, read-out: GI50 values

Row | SMILES | GI50 [1] | GI50 [2] | GI50 [3] | GI50 [4] | GI50 [5] | GI50 [6] | GI50 [7] | GI50 [8] | GI50 [9] | GI50 [10] | GI50 [11] | GI50 [12] | GI50 [13] | GI50 [14] | GI50 [15] | GI50 [16] | GI50 [17] | GI50 [18] | GI50 [19] | GI50 [20] | also measured
1 | COc1cc(-c2cc(-c3nc4ccccc4[nH]3)[nH]n2)cc(OC)c1OC [6f, 2-(3-(3,4,5-trimethoxyphenyl)-1H-pyrazol-5-yl)-1H-benzo[d]imidazole] | 3.9 µM | 2.85 µM | 2.79 µM | 3.08 µM | 2.24 µM | 3.66 µM | 2.26 µM | 2.72 µM | 3.91 µM | 7.16 µM | 2.24 µM | 3.73 µM | 1.51 µM | 2.21 µM | 7.1 µM | 2.4 µM | 3.43 µM | 2.1 µM | 7.73 µM | 2.1 µM | GI50 [21]: 3.22 µM; GI50 [22]: 2.09 µM; GI50 [23]: 4.79 µM; GI50 [24]: 3.98 µM; GI50 [25]: 2.43 µM; GI50 [26]: 0.93 µM; GI50 [27]: 1.34 µM; GI50 [28]: 1.26 µM; GI50 [29]: 2.88 µM; GI50 [30]: 2.35 µM; GI50 [31]: 3.15 µM; GI50 [32]: 4.07 µM
2 | c1ccc2[nH]c(-c3cc(-c4ccc5c(c4)OCO5)n[nH]3)nc2c1 [6g, 2-(3-(benzo[d][1,3]dioxol-5-yl)-1H-pyrazol-5-yl)-1H-benzo[d]imidazole] | 7.27 µM | 6.29 µM | 3.78 µM | 3.83 µM | 3.39 µM | 4.58 µM | 4.47 µM | 4.85 µM | 3.73 µM | 3.66 µM | 2.74 µM | 2.37 µM | 1.7 µM | 3.98 µM | 3.74 µM | 4.57 µM | 3.86 µM | 6 µM | 5.87 µM | 3.64 µM | GI50 [21]: 4.12 µM; GI50 [22]: 3.02 µM; GI50 [23]: 4.07 µM; GI50 [24]: 4.78 µM; GI50 [25]: 4.23 µM; GI50 [26]: 3.57 µM; GI50 [27]: 1.53 µM; GI50 [28]: 2.16 µM; GI50 [29]: 4.08 µM; GI50 [30]: 3.97 µM; GI50 [31]: 6.36 µM; GI50 [32]: 1.09 µM
3 | Fc1ccc2[nH]c(-c3cc(-c4ccc5c(c4)OCO5)n[nH]3)nc2c1 [7g, 2-(3-(benzo[d][1,3]dioxol-5-yl)-1H-pyrazol-5-yl)-5-fluoro-1H-benzo[d]imidazole] | 8.24 µM | 6.88 µM | 3.53 µM | 4.81 µM | 3.63 µM | 7.13 µM | 8.84 µM | 8.87 µM | 4.95 µM | 5.77 µM | 2.71 µM | 2.78 µM | 4.66 µM | 2.93 µM | 5.37 µM | 5.37 µM | 3.73 µM | 1.02 µM | 9.34 µM | 3.78 µM | GI50 [21]: 2.22 µM; GI50 [22]: 4.57 µM; GI50 [23]: 5.37 µM; GI50 [24]: 8.11 µM; GI50 [25]: 3.53 µM; GI50 [26]: 4.14 µM; GI50 [27]: 1.46 µM; GI50 [28]: 1.37 µM; GI50 [29]: 4.43 µM; GI50 [30]: 3.43 µM; GI50 [31]: 4.5 µM; GI50 [32]: 1.3 µM
4 | COc1ccc2[nH]c(-c3cc(-c4cc(OC)c(OC)c(OC)c4)n[nH]3)nc2c1 [9f, 5-methoxy-2-(3-(3,4,5-trimethoxyphenyl)-1H-pyrazol-5-yl)-1H-benzo[d]imidazole] | 2.29 µM | 2.47 µM | 2.15 µM | 2.01 µM | 1.15 µM | 2.92 µM | 1.34 µM | 1.9 µM | 2.06 µM | 2.76 µM | 1.79 µM | 2.9 µM | 2.23 µM | 1.57 µM | 3.03 µM | 1.48 µM | 2.5 µM | 1.67 µM | 2.89 µM | 1.03 µM | GI50 [21]: 2.87 µM; GI50 [22]: 1.32 µM; GI50 [23]: 2.29 µM; GI50 [24]: 1.61 µM; GI50 [25]: 1.63 µM; GI50 [26]: 0.38 µM; GI50 [28]: 1.24 µM; GI50 [29]: 2.91 µM; GI50 [30]: 1.15 µM; GI50 [31]: 1.81 µM; GI50 [32]: 2.21 µM
